Source: US20130035256A1, “Chimeric Polypeptides Useful in Proximal and Dynamic High-Throughput Screening Methods” (ADDEX PHARMA SA, priority 2010, published 2013)
Where a name gives a salt, the structure may show the parent alone. Marks after values point to notes of the source that are not given here.

Tests used:
chimeric M4R (RGLG-2) = molecular target: T1, chimeric M4R (RGLG-2) (Homo sapiens, UniProt P08173); experiment: BRET assay of the invention, cells co-expressing chimeric M4R (RGLG-2) and FP-Gγ9; type: cell-based; conditions: for Invention assay % stim: compound tested alone; for Invention assay % enh: in presence of EC20 value of Ach; for Invention assay % inh: in presence of EC80 of Ach; for activation of the chimeric M4R (BRET): increasing concentrations of ligand
T1 construct: ID; NOs; expressed in transfected cells
T1 sequence (P08173 with tags, fused parts or gaps): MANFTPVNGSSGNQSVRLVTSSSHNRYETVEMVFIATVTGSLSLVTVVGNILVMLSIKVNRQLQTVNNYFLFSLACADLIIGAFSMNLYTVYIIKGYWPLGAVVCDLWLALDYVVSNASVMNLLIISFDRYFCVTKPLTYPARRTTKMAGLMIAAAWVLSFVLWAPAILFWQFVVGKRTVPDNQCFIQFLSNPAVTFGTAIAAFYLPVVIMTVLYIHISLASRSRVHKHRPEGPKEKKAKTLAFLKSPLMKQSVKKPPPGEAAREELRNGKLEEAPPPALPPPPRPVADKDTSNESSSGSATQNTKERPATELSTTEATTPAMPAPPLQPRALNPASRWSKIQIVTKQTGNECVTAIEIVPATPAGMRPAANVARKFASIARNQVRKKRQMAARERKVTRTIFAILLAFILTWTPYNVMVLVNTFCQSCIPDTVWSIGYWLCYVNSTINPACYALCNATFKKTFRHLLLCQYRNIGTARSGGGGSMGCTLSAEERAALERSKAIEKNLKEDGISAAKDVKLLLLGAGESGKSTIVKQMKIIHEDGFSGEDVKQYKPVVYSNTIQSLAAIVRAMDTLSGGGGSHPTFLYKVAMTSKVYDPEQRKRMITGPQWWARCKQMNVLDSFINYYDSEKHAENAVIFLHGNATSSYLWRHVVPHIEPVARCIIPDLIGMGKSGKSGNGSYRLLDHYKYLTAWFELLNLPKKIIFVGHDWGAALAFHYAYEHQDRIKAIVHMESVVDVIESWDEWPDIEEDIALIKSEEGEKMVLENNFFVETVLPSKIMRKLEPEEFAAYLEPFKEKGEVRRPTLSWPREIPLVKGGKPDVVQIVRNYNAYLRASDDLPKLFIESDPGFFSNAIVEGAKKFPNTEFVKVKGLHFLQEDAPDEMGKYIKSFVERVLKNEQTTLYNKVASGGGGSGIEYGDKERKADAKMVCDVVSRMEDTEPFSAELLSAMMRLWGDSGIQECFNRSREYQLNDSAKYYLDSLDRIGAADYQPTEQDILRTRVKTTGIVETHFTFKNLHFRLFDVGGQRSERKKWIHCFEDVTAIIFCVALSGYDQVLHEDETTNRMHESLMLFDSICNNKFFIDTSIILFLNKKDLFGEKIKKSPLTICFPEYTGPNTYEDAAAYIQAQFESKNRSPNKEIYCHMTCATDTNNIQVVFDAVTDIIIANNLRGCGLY
Protocol: The same cells as described for FIG. 10 A were used. […] The decrease of the signal below baseline in the PTX-treated condition confirms a constitutive activity that has been described for the M4R. […]
A typical experiment has the following sequence.
(§1) The assay of the present invention was compared with a state of the art calcium based assay. […] In calcium-based assay, a calcium flux is measured in cells co-expressing recombinant M4R and modified Gαq. In the assay in accordance with the present invention, BRET in measured in cells co-expressing a chimeric M4R according to RGLG-2 (construct and cell-line from FIG. 2C, Table 6) and FP-Gγ9 (as described in FIG. 10A). The data represent mean values and they are normalized to the maximal effect of the orthosteric agonist after the subtraction of the basal values.

M4R = molecular target: T2, M4R (Homo sapiens, UniProt P08173); experiment: Calcium-based assay, calcium flux in cells co-expressing recombinant M4R and modified Gαq; type: cell-based; conditions: for Calcium-based assay % stim: compound tested alone; for Calcium-based assay % enh: in presence of EC20 value of Ach; for Calcium-based assay % inh: in presence of EC80 of Ach
T2 construct: expressed in transfected cells
T2 sequence (P08173 1-479): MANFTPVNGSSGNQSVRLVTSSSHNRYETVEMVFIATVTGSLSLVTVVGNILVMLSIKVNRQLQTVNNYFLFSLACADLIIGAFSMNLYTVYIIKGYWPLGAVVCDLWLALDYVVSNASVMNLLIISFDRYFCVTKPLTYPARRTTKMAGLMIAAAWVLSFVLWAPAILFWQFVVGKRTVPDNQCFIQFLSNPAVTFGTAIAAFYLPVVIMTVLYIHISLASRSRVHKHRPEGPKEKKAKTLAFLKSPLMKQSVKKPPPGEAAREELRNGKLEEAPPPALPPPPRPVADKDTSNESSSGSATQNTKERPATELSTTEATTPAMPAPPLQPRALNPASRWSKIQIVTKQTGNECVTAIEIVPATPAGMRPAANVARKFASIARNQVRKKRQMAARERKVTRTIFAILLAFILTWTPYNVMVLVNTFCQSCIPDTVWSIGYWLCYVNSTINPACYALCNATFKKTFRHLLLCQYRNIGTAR
Protocol: as §1

[1] = activity @ 30uM or 30 ug/ml, normalized to maximal effect of the orthosteric agonist

Invention assay % stim (chimeric M4R (RGLG-2); [1]) [%]	Invention assay % enh (chimeric M4R (RGLG-2); [1]) [%]	Invention assay % inh (chimeric M4R (RGLG-2); [1]) [%]	Calcium-based assay % stim (M4R; [1]) [%]	Calcium-based assay % enh (M4R; [1]) [%]	Calcium-based assay % inh (M4R; [1]) [%]	Invention assay % stim (chimeric M4R (RGLG-2); * @ 3uM or 3 ug/ml)	Invention assay % enh (chimeric M4R (RGLG-2); * @ 3uM or 3 ug/ml)	Invention assay % inh (chimeric M4R (RGLG-2); * @ 3uM or 3 ug/ml)	Calcium-based assay % stim (M4R; * @ 3uM or 3 ug/ml)	Molecule	activation of the chimeric M4R (BRET) (chimeric M4R (RGLG-2))	Calcium-based assay % enh (M4R; * @ 3uM or 3 ug/ml)
−1.3	3.6	6.6	5.1	19.4	17.1					Nc1c[n+](N2CCOCC2)no1.[Cl-] [SIN-1 chloride]		
−6.8	2.8	13.5	879.7	151.4	−23.8					O=C1Nc2ccc(I)cc2/C1=C/c1cc(Br)c(O)c(Br)c1 [GW 5074]		
−15.8	5.3	23.2	−0.9	8.7	34.8					COC(=O)C1=C(C)NC(C)=C(C(=O)OC)C1c1ccccc1[N+](=O)[O-] [Nifedipine]		
−13.0	−0.1	8.6	2.3	3.8	41.6					AG 10		
−8.0	23.9	−3.5	13.4	92.3	−73.7					O=C(N/N=C/c1ccc(O)c(O)c1)c1cc2ccccc2cc1O [Dynamin Inhibitor I]		
										COc1nc2sc(C(=O)NC3CC3)c(N)c2c(C)c1Cl [LY2033298]	activation	
−14.9	−3.5	29.9	1.4	−7.3	118.9					CCCCCC(O)/C=C/C=O (stereo not shown) [4-Hydroxynonenal]		
−5.0	−3.6	11.8	57.8	58.3	−22.4					C=C[C@@]1(C)CC(=O)[C@]2(O)[C@@]3(C)[C@@H](O)CCC(C)(C)[C@@H]3[C@H](O)[C@H](OC(C)=O)[C@@]2(C)O1 [FSK]		
										Nc1ncnc2c1ncn2[C@@H]1O[C@H](COP(=O)(O)OP(=O)(O)OP(=O)(O)O)[C@@H](O)[C@H]1O [ATP]	lack of activation	
−8.4	7.5	10.0	48.9	59.7	−66.6					COC(=O)c1c(C)[nH]c(C)c1C(=O)c1ccccc1Cc1ccccc1 [FPL 64176]		
−8.2	4.7	11.4	26.8	77.8	−66.5					COC(=O)C1=C(C)NC(C)=C([N+](=O)[O-])[C@@H]1c1ccccc1C(F)(F)F [(R)-(+)-Bay K 8644]		
−8.0	−3.6	14.6	16.1	59.8	−65.0					COC(=O)C1=C(C)NC(C)=C([N+](=O)[O-])[C@H]1c1ccccc1C(F)(F)F [(S)-(−)-Bay K 8644]		
						−0.8* %	−1.2* %	15.8* %	8.1* %	CN([C@@H](Cc1ccc(OS(=O)(=O)c2cccc3cnccc23)cc1)C(=O)N1CCN(c2ccccc2)CC1)S(=O)(=O)c1cccc2cnccc12 [KN-62]		39.4* %
1.3	8.3	1.5	18.1	62.6	−29.2					Cn1c2c(c(=O)n(C)c1=O)C(c1cccc(Br)c1)C1=C(N2)c2ccccc2C1=O (stereo not shown) [BPIPP]		

Molecule	Invention assay % stim (chimeric M4R (RGLG-2); [1]) [%]	Invention assay % enh (chimeric M4R (RGLG-2); [1]) [%]	Invention assay % inh (chimeric M4R (RGLG-2); [1]) [%]	Calcium-based assay % stim (M4R; [1]) [%]	Calcium-based assay % enh (M4R; [1]) [%]	Calcium-based assay % inh (M4R; [1]) [%]	Invention assay % stim (chimeric M4R (RGLG-2); * @ 3uM or 3 ug/ml)	Invention assay % enh (chimeric M4R (RGLG-2); * @ 3uM or 3 ug/ml)	Invention assay % inh (chimeric M4R (RGLG-2); * @ 3uM or 3 ug/ml)	Calcium-based assay % stim (M4R; * @ 3uM or 3 ug/ml)	activation of the chimeric M4R (BRET) (chimeric M4R (RGLG-2))	Calcium-based assay % enh (M4R; * @ 3uM or 3 ug/ml)
Cc1ccc2c(c1)C(=O)C1(O)CCN(c3ccccc3)C1=N2 (racemic) [(±)-Blebbistatin]	−7.2	−2.4	13.1	130.0	115.1	−46.9						
CN(C)CCCn1cc(C2=C(c3c[nH]c4ccccc34)C(=O)NC2=O)c2ccccc21 [GF 109203X]	2.2	7.4	29.5	154.3	84.3	−10.0						
O=C1OC2(c3ccccc31)c1ccc(O)c(O)c1Oc1c2ccc(O)c1O [Gallein]	3.9	5.1	5.3	11.7	42.9	−22.2						
NCCOB(c1ccccc1)c1ccccc1 [2-APB]	−4.7	6.3	10.5	3.7	4.8	30.3						
C[C@H](CCC(=O)O)C[C@H](C)C[C@H](C)C(=O)/C=C(\O)[C@H](C)C[C@H](C)C/C=C/[C@@H](C)[C@@H](O)[C@@H](C)[C@@H](O)C[C@@H]1CC[C@@](C)([C@H]2CC[C@@](C)([C@@H](C)O)O2)O1 [Ionomycin calcium salt]	−11.8	−2.5	14.6	488.7		112.2						58.8* %
C[C@H]1CCC/C=C/[C@@H]2C[C@H](O)C[C@H]2[C@H](O)/C=C/C(=O)O1 [Brefeldin A]	−2.5	−1.9	12.7	5.2	32.3	−19.5						
CCN1C(=O)C=CC1=O [N-Ethylmaleimide]	−3.4	12.4	16.5	3.8	0.2	96.9						
CC[C@H]1/C=C/C=C/C[C@@H](C)[C@H](O)[C@@](C)(O)C(=O)[C@@H](C)[C@H](O)[C@@H](C)C(=O)[C@@H](C)[C@H](O)[C@@H](C)/C=C/C(=O)O[C@@H]2[C@H](C)[C@H](CC1)O[C@]1(CC[C@H](C)[C@H](C[C@@H](C)O)O1)[C@H]2C [Oligomycin]	1.8	3.3	8.5	3.3	63.8	−21.6						
CCOC(=O)C1=C(C)NC(=S)NC1c1cccc(O)c1 (stereo not shown) [Monastrol]	−3.0	−0.1	7.0	4.1	44.7	−16.7						
Thapsigargin	−0.7	−4.2	10.8	129.5	49.8	11.6						
